Columns and labels:
[1] = Pharmacokinetic study, single IP injection, plasma and brain by LC-MS/MS; format: in vivo, CD-1 mice; conditions: IP 0.75, 2.25 or 6.75 mg/kg, male and female mice
Protocol: A pharmacokinetic (PK) study of the “E559 polymorph” was conducted following a single intraperitoneal (IP) injection in CD-1 mice. PK analysis of the “E559 polymorph” was performed in plasma samples and in brain tissue taken at different time points post injection. Three groups of male mice and three groups of female mice (n=24 per group) were administered “E559” at different doses (0.75, 2.25, or 6.75 mg/kg) by IP injection at time zero. In each dose group, three mice/sex were sacrificed to collect plasma and brain samples at pre-dose, and 0.17, 0.5, 1, 2, 4, 8, and 24 hours post-dose. Levels of the “E559 polymorph” in plasma and brain tissue were assessed by LC-MS/MS method. Briefly, to extract the plasma samples, 200 μL of acetonitrile containing 10 ng/mL LSD-d3 was added to 50 μL of plasma. The mixture was vortexed vigorously, centrifuged (13,000 rpm) for 2 min at 4° C., and then 50 μL of supernatant was combined with 200 μL methanol/water (1:1, v/v) for LC-MS/MS analysis. Brain tissues were weighed and homogenized for ˜1 min in cold acetonitrile at a ratio of 1:1.5 (w/v) brain tissue to extraction solvent. The brain samples were then centrifuged at 13,000 rpm for 2 min at 4° C. and the supernatant was collected for LC-MS/MS analysis. In LC-MS/MS method, isocratic elution was performed on an ACE Excel 5 SuperC18™ column at 25° C., with a run time of 6.5 min. The mobile phase consisted of methanol-water (8:2, v/v) plus 0.1% NH4OH at a flow rate of 0.8 mL/min. The injection volume was 10 μL/sample. […]
The “E559 polymorph” was quantified by selected reaction monitoring of the following mass transitions (2-Br-LSD m/z 403.3→302, LSD-d3 internal standard m/z 327.2→226.1). The quantification of the “E559 polymorph” concentration in samples was achieved by using appropriate calibration standards. […] The pharmacokinetic parameters were determined by the non-compartmental analysis using the validated Phoenix®WinNonlin® version 8.2 software (Certara Inc).

mice = test: Tolerance after repeated dosing, HTR to DOI challenge; format: in vivo, mouse; conditions: IP once daily 7 days: DOI 10 mg/kg/day, E559 polymorph 3 mg/kg/day; DOI 1 mg/kg challenge 24 hours later
Protocol: To determine if repeated dosing of the “E559 polymorph” can induce tolerance in vivo, HTR experiment described in Examples 2 and 5 was repeated where mice received IP injections of vehicle, DOI (10 mg/kg/day), or the “E559 polymorph” (3 mg/kg/day; once daily for 7 consecutive days) and were then challenged with DOI (1 mg/kg) 24 hours later. Data shown in FIG. 22 are group means±standard deviation for the entire 60 minutes test session. Asterisks indicate statistical significances compared to the Vehicle control (Vehicle was saline).

stress naive mice = test: Open field test (OFT), stress naive mice; format: in vivo, mouse
Protocol: In brief, stress naive mice were treated (IP injection) with either saline (control) or single dose of the “E559 polymorph” at 0.3, 1, or 3 mg/kg dose levels and were evaluated 24 hours (OFT) and […] after treatment. The OFT was performed described in Example 13. The FST was performed as previously described in (Aguilar-Valles et al., Nature, 2021, 590, p315-319). Briefly FST was performed 24-hour post treatment by placing the mice (one by one) in a 4-liter wide-mouthed flask of 35° C. water. Mice activities were recorded for 6 minutes and assessed for total time the animal remains immobile, a sign of depressive-like behavior. FIG. 25A depicts the study design where female/male mice (n=10/group/sex) were treated by IP injection with the “E559 polymorph” or vehicle (saline) followed by open field and force swim test 24 hours post treatment. FIGS. 25B and 25E represent the total distance travelled in the open field test 24 hours after vehicle or the “E559 polymorph” in female and male mice, respectively. FIGS. 25C and 25F represent the time in the center of the open field by female and male mice, respectively. FIGS. 25D and 25G represent the immobility time during the last 4 minutes of the forced swim test in female and male mice, respectively. Horizontal lines represent the mean±standard error of the mean (S.E.M.) and asterisks indicate statistical significances.

[2] = molecular target: H3 histaminergic receptor (Homo sapiens, UniProt Q9Y5N1); test: BRET-based G protein dissociation assay; format: cell-based; conditions: percentage of the reference ligand-induced maximal response
Sequence of H3 histaminergic receptor (Q9Y5N1 whole entry): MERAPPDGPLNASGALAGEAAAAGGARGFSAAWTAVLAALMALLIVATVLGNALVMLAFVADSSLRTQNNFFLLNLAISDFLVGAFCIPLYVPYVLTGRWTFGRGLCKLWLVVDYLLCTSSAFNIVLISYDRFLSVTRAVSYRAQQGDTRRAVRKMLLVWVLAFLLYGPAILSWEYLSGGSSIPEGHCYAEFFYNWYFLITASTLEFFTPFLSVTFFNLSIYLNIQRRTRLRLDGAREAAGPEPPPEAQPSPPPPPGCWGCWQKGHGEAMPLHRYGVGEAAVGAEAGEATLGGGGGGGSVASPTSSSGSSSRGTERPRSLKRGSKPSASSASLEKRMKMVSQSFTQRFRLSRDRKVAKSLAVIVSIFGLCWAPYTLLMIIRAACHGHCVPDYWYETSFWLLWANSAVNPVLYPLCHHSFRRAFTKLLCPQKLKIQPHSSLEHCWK

SMILES | crossing of the blood-brain barrier (brain PK) [1] | plasma levels [1] | time to appearance in plasma post dose [1] | tolerance (tachyphylaxis) after repeated dosing, HTR count on DOI challenge (mice) | increase in exploration of the arena center (time in center), maximal effect (stress naive mice; female mice, IP 1 mg/kg, 24 hours after treatment) | exploration of the arena center (stress naive mice; female mice, IP 1 and 3 mg/kg, 24 hours after treatment) | increased exploration of the stressogenic area of the open field (stress naive mice; male mice, IP 0.3, 1 or 3 mg/kg) | Emax [2]
CCN(CC)C(=O)[C@@H]1C=C2c3cccc4[nH]c(Br)c(c34)C[C@H]2N(C)C1 [E559, (5R, 8R)-2-Bromo-9,10-didehydro-N,N-diethyl-6-methylergoline-8-carboxamide hemi-D-tartrate] | can readily cross the blood-brain barrier | increases in time-dependent and dose-dependent manners | 10 min | no tolerance was observed | 88.18 ± 18.89 s | increased exploration of the arena center | not evident in male mice | 
CCN(CC)C(=O)[C@@H]1C=C2c3cccc4[nH]cc(c34)C[C@H]2N(C)C1 [LSD, lysergic acid diethylamide, reference compound] |  |  |  |  |  |  |  | 18.6%
